# Experimental data published in ChEMBL document CHEMBL1201862, “PubChem BioAssay data set” (2004).
# The source made the active and inactive calls.
# How the values were obtained:
# Caspase-3 = biological target: T1, Caspase-3 (Homo sapiens, UniProt P42574); format: functional;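 further: Dose-response selectivity test against caspase-3 for candidate inhibitors of sentrin-specific proteases (SENPs)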
# T1 sequence (P42574 whole entry): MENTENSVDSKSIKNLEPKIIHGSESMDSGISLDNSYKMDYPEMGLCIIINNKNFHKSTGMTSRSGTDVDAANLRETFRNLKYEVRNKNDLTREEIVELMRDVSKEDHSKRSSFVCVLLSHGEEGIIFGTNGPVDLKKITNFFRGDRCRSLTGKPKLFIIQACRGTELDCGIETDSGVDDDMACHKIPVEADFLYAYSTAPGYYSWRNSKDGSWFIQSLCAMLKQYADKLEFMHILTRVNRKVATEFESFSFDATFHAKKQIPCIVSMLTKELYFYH
# [1] = biological target: T2, Sentrin-specific protease 6 (Homo sapiens, UniProt Q9GZR1); format: functional;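 further: Luminescence-based dose-response confirmatory assay of SENP6 inhibition, following up an ultra-high-throughput screen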
# T2 sequence (Q9GZR1 whole entry): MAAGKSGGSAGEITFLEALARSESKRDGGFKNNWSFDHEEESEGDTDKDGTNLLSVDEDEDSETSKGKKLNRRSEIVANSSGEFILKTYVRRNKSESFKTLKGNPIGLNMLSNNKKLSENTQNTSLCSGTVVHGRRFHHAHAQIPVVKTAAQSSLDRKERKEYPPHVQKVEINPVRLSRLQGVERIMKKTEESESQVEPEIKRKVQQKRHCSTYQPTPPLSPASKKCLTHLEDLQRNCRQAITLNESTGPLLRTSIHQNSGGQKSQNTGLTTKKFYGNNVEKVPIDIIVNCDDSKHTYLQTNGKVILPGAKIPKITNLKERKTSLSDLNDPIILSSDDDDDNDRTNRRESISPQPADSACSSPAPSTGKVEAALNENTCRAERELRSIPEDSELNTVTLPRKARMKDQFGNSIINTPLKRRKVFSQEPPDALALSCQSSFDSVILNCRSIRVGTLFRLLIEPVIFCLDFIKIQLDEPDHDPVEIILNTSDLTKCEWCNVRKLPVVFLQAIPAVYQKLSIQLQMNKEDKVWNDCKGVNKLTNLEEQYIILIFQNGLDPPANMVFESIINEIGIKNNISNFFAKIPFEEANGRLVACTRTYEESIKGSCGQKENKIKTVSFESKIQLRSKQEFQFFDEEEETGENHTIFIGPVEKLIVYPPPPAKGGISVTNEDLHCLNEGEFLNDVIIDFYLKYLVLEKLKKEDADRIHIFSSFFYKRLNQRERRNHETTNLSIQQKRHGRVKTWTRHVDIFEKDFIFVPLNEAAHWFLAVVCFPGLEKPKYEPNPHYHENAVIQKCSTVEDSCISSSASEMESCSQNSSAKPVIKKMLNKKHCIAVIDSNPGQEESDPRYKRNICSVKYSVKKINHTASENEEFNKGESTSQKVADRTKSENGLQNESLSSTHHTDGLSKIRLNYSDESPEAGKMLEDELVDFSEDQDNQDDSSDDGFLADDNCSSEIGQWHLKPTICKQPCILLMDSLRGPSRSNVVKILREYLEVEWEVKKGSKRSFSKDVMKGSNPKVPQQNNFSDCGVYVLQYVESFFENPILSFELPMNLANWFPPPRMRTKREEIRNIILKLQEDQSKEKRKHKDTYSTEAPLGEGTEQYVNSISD
# [2] = biological target: T3, Sentrin-specific protease 8 (Homo sapiens, UniProt Q96LD8); format: functional;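 further: luminescence read-out of SENP8 inhibition, dose-response confirmation following an ultra-high-throughput screen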
# T3 sequence (Q96LD8 whole entry): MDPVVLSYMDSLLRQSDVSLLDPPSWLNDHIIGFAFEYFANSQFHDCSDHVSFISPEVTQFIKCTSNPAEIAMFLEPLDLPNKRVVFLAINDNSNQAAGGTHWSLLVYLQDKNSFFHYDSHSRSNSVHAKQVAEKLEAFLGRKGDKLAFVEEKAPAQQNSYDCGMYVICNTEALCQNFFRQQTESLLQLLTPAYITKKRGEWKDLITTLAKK
# HeLa = test: HeLa cell cytotoxicity, dose response, cytotoxicity control for MITF activator project, CellTiter-Glo luminescence, cherry-pick samples (AID 540259); format: functional, cell-based; details: Homo sapiens
# [3] = biological target: T4, Short transient receptor potential channel 4 (Mus musculus, UniProt Q9QUQ5); test: mouse TRPC4 channel activators, dose response, cell-based, HEK293 TRPC4/mu-opioid, Fluo-4 calcium (AID 434937); format: functional
# T4 sequence (Q9QUQ5 whole entry): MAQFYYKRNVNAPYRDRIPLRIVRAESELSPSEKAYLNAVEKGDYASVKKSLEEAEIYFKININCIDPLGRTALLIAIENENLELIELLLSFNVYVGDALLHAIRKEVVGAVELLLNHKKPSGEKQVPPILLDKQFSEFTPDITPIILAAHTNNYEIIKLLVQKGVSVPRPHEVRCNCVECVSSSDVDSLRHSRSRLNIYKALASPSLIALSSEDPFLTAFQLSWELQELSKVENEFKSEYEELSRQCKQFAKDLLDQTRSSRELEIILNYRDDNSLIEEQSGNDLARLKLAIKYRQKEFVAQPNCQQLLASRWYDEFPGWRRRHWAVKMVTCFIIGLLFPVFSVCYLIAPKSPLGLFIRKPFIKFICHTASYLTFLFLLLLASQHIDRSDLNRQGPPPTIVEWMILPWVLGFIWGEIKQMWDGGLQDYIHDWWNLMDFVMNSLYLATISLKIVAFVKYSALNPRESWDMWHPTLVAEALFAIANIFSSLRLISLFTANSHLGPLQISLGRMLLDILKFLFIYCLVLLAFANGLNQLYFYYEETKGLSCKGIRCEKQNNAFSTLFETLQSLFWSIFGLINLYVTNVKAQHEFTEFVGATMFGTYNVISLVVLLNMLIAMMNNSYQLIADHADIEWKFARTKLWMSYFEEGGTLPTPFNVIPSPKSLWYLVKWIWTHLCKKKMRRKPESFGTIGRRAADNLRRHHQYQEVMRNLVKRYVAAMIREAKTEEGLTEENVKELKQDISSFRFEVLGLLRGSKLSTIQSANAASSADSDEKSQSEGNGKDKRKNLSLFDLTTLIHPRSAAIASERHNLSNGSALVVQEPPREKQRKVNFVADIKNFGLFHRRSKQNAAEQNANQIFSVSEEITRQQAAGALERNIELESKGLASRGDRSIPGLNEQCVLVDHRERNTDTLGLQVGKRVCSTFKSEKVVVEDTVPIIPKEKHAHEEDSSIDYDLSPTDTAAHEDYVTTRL
# [4] = biological target: Delta-type opioid receptor (Homo sapiens, UniProt P41143); test: Counterscreen for agonists of heterodimerization of the mu 1 (OPRM1) and delta 1 (OPRD1) opioid receptors: Luminescence-based cell-based high throughput dose response assay to identify agonists of OPRD1 homodimerization. [Related pubchem assays (depositor defined):AID504326, AID504355, AID504692, AID504904, AID504905]; format: functional
# Mu-type opioid receptor = Mu-type opioid receptor (Homo sapiens, UniProt P35372); test: Counterscreen for agonists of heterodimerization of the mu 1 (OPRM1) and delta 1 (OPRD1) opioid receptors: Luminescence-based cell-based high throughput dose response assay to identify agonists of OPRM1 homodimerization.; format: functional;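 further: U2OS cells expressing OPRM1 and beta-arrestin as split beta-galactosidase partners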
# [5] = biological target: 5-hydroxytryptamine receptor 5A (Homo sapiens, UniProt P47898); test: Counterscreen for agonists of OPRM1-OPRD1 heterodimerization: luminescence-based cell-based high throughput dose response assay to identify agonists of 5-hydroxytryptamine (serotonin) 5A receptor (HTR5A). [Related pubchem assays (depositor defined):AID504326, AID504355, AID504692, AID504904, AID504905]; format: functional
# [6] = NIH-3T3 fibroblast cytotoxicity, dose response, cytotoxicity control, cell-based, fluorescence, Alamar Blue, secondary assay (AID 2327); format: functional;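 further: NIH-3T3 mouse fibroblasts cultured with fluconazole at 8 µg/mL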
# [7] = C. albicans growth with fluconazole, confirmation, fluorescence, retest (AID 2467); format: functional, cell-based
# [8] = biological target: T5, Serine/threonine-protein phosphatase (Candida dubliniensis (strain CD36 / CBS 7987 / NCPF 3949 / NRRLY-17841) (Yeast), UniProt B9W6M3); test: calcineurin pathway inhibitors in yeast reporter, dose response, S. cerevisiae, CDRE-lacZ, luminescence, secondary (AID 2388); format: functional, cell-based;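 further: yeast reporter cells carrying a calcineurin-responsive lacZ construct stimulated with calcium chloride; luminescent beta-galactosidase reporter signal in whole cells rather than isolated phosphatase activity; potency for inhibition where a drop in reporter signal means calcineurin blockade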
# T5 sequence (B9W6M3 whole entry): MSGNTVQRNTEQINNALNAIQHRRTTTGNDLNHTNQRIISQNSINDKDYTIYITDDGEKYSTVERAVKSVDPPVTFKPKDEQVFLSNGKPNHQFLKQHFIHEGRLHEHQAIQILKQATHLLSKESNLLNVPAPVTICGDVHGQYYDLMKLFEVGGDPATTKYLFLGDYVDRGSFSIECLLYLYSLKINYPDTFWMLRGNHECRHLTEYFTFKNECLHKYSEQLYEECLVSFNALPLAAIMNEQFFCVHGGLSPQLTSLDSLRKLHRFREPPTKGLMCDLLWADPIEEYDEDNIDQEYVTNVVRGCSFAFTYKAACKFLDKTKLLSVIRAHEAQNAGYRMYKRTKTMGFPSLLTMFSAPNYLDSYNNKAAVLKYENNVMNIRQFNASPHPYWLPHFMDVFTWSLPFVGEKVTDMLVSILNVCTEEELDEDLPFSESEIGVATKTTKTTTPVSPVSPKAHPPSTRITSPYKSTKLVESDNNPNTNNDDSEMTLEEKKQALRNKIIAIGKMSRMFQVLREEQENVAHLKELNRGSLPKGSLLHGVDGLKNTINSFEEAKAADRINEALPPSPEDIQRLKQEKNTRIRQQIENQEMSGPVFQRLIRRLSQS
# [9] = biological target: ATP-dependent molecular chaperone HSP82 (Candida albicans (strain WO-1) (Yeast), UniProt C4YTQ8); test: loss of DOC-induced GRE-beta-galactosidase reporter signal, dose response, Hsp90 inhibitor project, S. cerevisiae, luminescence (AID 2400); format: functional, cell-based;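 further: beta-galactosidase luminescence from glucocorticoid response element reporter as proxy for Hsp90 function; inhibitor potency where signal loss means Hsp90 inhibition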
# [10] = biological target: T6, Corticotropin-releasing factor receptor 2/Corticotropin-releasing factor-binding protein (Homo sapiens, UniProt P24387+Q13324); test: Dose Response confirmation of uHTS hits for small molecule antagonists of the CRF-binding protein and CRF-R2 receptor complex.; format: functional; details: read-out: IC50_Mean
# T6 sequence (Q13324 whole entry): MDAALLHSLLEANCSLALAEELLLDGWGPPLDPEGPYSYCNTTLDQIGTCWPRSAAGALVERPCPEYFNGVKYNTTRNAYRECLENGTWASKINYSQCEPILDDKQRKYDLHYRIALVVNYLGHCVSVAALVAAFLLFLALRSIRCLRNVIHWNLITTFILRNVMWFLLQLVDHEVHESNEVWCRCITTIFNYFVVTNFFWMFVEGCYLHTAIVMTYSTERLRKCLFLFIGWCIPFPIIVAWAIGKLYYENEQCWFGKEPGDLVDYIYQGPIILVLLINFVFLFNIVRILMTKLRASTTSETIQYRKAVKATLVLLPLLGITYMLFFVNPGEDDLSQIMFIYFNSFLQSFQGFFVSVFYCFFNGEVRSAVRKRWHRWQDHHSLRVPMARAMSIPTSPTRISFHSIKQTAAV
# T6 sequence (P24387 whole entry): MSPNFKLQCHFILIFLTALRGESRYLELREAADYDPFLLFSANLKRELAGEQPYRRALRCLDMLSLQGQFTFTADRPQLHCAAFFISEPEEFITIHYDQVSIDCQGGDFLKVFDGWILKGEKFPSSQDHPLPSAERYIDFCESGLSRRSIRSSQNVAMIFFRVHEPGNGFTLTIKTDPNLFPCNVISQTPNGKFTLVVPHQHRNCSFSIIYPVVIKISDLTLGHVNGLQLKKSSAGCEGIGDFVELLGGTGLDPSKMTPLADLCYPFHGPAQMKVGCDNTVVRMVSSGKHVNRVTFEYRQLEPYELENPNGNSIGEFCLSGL
# [11] = biological target: T6, Corticotropin-releasing factor receptor 2/Corticotropin-releasing factor-binding protein; test: activators of CRF receptor 2 with binding protein – uHTS hits, confirmation (AID 602473); format: functional; details: read-out: EC50_Mean
# [12] = Luminescence Cell-Based Dose Response HTS to Identify Activators of Luciferase Translation or Activity in H4 […] Cells. [Related pubchem assays: 1829 (Project Summary), 1814 (Primary HTS)]; format: functional
# H4 = test: Luminescence Cell-Based Dose Response HTS to Identify Activators of 5'UTR Stem-Loop Driven Prion Protein mRNA Translation in H4 Neuroglioblastoma Cells. [Related pubchem assays: 1829 (Project Summary), 1814 (Primary HTS)]; format: functional; details: Homo sapiens
# Delta-type opioid receptor, sequence (P41143 whole entry): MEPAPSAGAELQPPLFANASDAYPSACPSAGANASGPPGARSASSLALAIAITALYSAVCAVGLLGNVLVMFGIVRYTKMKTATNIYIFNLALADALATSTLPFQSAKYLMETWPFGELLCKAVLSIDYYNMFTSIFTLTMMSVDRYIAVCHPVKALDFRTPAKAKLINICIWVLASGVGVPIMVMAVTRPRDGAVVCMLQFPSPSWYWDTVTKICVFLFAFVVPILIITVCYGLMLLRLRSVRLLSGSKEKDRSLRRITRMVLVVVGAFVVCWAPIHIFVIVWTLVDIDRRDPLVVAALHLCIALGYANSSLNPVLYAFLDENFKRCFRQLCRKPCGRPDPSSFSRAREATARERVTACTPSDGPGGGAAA
# 5-hydroxytryptamine receptor 5A, sequence (P47898 whole entry): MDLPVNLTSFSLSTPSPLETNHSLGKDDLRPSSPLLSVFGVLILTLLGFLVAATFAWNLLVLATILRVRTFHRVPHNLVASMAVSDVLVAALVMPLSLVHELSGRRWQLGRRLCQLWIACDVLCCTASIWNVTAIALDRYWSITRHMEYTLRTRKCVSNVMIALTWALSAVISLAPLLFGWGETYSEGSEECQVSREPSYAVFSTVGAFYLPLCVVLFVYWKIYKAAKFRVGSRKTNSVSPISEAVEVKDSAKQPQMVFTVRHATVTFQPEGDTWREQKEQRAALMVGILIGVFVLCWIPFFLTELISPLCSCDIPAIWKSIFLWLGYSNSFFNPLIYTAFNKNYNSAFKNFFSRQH
# Mu-type opioid receptor, sequence (P35372 whole entry): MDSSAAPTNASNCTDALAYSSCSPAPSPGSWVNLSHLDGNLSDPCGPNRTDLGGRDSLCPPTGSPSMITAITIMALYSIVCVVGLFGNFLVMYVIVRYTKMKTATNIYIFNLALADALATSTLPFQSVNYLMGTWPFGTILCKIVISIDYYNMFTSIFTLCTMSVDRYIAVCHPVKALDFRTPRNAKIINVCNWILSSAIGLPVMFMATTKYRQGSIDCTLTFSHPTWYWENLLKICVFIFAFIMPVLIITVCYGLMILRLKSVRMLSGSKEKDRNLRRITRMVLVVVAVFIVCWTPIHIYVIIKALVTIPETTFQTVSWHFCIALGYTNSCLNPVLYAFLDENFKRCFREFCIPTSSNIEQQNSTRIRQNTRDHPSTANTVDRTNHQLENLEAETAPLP
# ATP-dependent molecular chaperone HSP82, sequence (C4YTQ8 whole entry): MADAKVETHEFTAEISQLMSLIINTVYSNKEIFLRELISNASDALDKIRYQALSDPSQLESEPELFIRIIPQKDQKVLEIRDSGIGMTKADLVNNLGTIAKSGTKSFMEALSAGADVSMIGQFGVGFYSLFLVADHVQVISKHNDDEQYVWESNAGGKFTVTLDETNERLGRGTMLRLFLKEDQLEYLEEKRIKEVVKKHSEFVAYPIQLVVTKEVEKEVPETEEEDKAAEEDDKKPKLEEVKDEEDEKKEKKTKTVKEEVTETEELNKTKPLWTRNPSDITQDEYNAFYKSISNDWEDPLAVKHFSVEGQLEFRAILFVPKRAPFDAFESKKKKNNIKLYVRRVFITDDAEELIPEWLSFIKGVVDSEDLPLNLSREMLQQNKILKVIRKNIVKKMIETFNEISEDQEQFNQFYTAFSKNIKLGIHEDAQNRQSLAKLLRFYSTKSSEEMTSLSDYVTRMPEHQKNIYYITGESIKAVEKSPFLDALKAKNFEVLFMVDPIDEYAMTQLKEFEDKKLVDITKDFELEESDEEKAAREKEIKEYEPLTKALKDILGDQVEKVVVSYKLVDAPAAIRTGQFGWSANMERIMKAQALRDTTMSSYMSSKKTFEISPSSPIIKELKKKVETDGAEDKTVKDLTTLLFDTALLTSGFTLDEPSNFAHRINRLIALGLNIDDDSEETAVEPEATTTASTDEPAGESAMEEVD
compound,measurement,setting,value
CCCCc1ccc(Nc2ncccc2C#N)cc1,IC50,Caspase-3,21.3 µM (active)
same,IC50,[1],17.2 µM (active)
same,IC50,[2],33.1 µM (active)
COc1cc(OC)c2c(-c3cccc(/C=C/c4ccc(F)cc4)c3)cc(=O)oc2c1,AC50,HeLa,165 µM (active)
Cc1cc(C)cc(C(=O)N(CCc2ccccc2)C2=CC3CCC(C2)N3C)c1 (stereo not drawn),EC50,[3],0.267 µM (active)
same,EC50,[4],> 92.5 µM (inactive)
same,EC50,Mu-type opioid receptor,43.9 µM (inactive)
same,EC50,[5],> 92.5 µM (inactive)
Cc1nn(-c2ccccc2)c(Cl)c1/C=C/C(=O)c1ccc(O)cc1,EC50,[6],> 150 µM (inactive)
same,EC50,[7],1.1 µM (active)
same,EC50,[8],> 180 µM (inactive)
same,EC50,[9],18.9 µM (active)
same,IC50,[10],> 47.1 µM (inactive)
same,EC50,[11],> 53 µM (inactive)
COC(=O)c1sccc1NC(=O)CCC1CCCCC1,IC50,Caspase-3,27.9 µM (active)
same,IC50,[1],62.8 µM (active)
same,IC50,[2],> 100 µM (inactive)
O=S(=O)(Cc1cc(-c2ccccc2Cl)no1)c1ccccc1,AC50,HeLa,51.8 µM (active)
COc1cc(NC(=O)c2cccc(C)c2)ccc1NC(=O)c1cc2ccccc2o1,EC50,[4],> 92.4 µM (inactive)
same,EC50,Mu-type opioid receptor,> 92.4 µM (inactive)
same,EC50,[5],> 92.4 µM (inactive)
CN(C)C(CNC(=O)C1CC(=O)N(Cc2ccccc2)C1)c1ccccc1 (stereo not drawn),EC50,[3],1.33 µM (active)
same,EC50,[4],> 92.5 µM (inactive)
same,EC50,Mu-type opioid receptor,> 92.5 µM (inactive)
same,EC50,[5],> 92.5 µM (inactive)
Clc1cnc(N/N=C/c2cccs2)c(Cl)c1,EC50,[12],0.411 µM (active)
same,EC50,H4,0.136 µM (active)
same,AC50,HeLa,62.4 µM (active)
